The assay has as its target Human immunodeficiency virus type 1 reverse transcriptase (Human immunodeficiency virus 1, UniProt Q72547). The experiment in a line: Inhibitory activity against HIV-1 reverse transcriptase.

As a reminder, the IC50 is the midpoint of a concentration-inhibition curve.

`CC(C)c1c(Cc2ccccc2)n(COCc2ccccc2)c(=O)[nH]c1=O` gave a concentration for half-maximal inhibition (IC50) of 0.006 µM.
Compound `Cc1c(Sc2ccccc2)n(COCCO)c(=O)[nH]c1=O` [HEPT] displayed an IC50 of 17 µM.

(Values after ChEMBL document CHEMBL1129549, “Complexes of HIV-1 reverse transcriptase with inhibitors of the HEPT series reveal conformational changes relevant to the design of potent non-nucleoside inhibitors” (J Med Chem, 1996).)
